# In patent US20230279018A1, “AP[…] INHIBITION” (priority 2020, published 2023):
# pIC50, pKd: −log10 of the molar value.
# What was measured:
# HscFRS [1] = target: T1, HscFRS (Homo sapiens, UniProt Q9Y285); test: malachite green-based aminoacylation assay, HscFRS; format: biochemical; conditions: aminoacylation activity
# T1 sequence (Q9Y285 1-508): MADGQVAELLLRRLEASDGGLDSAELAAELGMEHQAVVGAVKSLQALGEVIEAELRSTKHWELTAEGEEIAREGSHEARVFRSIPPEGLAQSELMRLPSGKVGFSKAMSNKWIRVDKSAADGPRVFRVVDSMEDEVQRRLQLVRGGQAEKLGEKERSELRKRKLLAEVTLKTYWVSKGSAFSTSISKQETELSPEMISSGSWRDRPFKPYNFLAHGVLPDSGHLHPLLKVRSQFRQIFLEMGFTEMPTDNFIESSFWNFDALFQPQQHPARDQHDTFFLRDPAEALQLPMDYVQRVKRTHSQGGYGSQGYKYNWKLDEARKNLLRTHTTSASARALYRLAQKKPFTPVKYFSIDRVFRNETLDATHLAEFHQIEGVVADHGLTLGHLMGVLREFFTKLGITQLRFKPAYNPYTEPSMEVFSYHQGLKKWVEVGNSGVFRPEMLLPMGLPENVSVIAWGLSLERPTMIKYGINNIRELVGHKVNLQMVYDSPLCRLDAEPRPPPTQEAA
# T1 sequence (Q9NSD9 1-589 partner): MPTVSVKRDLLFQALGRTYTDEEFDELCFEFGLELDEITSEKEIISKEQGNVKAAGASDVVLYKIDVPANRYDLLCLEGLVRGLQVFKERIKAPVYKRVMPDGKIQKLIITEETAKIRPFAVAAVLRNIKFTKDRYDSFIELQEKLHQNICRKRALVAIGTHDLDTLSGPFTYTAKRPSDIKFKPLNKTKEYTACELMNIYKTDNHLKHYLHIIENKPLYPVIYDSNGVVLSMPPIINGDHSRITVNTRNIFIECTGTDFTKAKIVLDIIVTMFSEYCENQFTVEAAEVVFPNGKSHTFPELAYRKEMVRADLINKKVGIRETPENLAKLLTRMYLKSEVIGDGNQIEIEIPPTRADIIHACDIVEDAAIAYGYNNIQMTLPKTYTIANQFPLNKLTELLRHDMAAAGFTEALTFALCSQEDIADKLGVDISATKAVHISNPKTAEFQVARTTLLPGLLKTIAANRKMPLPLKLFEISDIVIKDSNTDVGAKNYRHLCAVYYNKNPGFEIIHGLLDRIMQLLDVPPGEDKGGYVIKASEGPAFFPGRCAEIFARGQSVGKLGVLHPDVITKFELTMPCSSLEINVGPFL
# Description: EC50 assays were run as described in Int'l Pub Nos. WO 2015070204, WO 2018175385, and Kato, N, et al. Nature 538 (2016): 344-349, which are hereby incorporated by reference in its entirety. The inhibition of the aminoacylation activity of Pf (Plasmodium falciparum), Pv (Plasmodium vivax), Hs (Human) and Pf-Mut (L550V) cFRS enzymes by Compound 1 are illustrated in FIG. 1.
# The enzymatic activity of purified heterodimeric PfcFRS using malachite green-based aminoacylation assays with substrates L-Phe and ATP was also measured as described in Cestari, I. et al., J Biomol. Screen. 18 (2013): 490-497 and Kato, N, et al. Nature 538 (2016): 344-349, which are hereby incorporated by reference in its entirety. […] Enzymatic reactions (50 μl total volume) were performed in clear, flat-bottomed, 96-well plates (Costar 96-well standard microplates). The reaction mixture was incubated for 2 h at 37° C. The reaction was stopped by adding 12.5 μl of malachite green solution to the reaction mixture and levels of inorganic phosphate (Pi) were detected after incubation of 5 min at room temperature. Absorbance was the measured at 620 nm using a Spectramax M2 (Molecular Devices). Reactions without FRS enzyme were performed as background controls, values of which were subtracted from the reactions with enzyme. […]
# HscFRS [2] = target: T1, HscFRS; test: Surface Plasmon Resonance binding, HscFRS; conditions: SPR, 25° C., PBS pH 7.4, 5% DMSO; read-out: cFRS Kd, Hs
# Protocol: Surface Plasmon Resonance experiments to evaluate the binding of Compound 1 to proteins were carried out on a Biacore T200 instrument (GE Healthcare) at 25° C. The binding experiments were performed in buffer 10 mM phosphate buffered saline (PBS), pH 7.4, containing 5% dimethyl sulfoxide (DMSO). The flow system was primed with the running buffer before the initiation of the experiment. Both PfcFRS and HscFRS were immobilized to Sensor Chip CM5 by standard amine coupling chemistry using N-hydroxysuccinimide (NHS) and ethyl(dimethylaminopropyl) carbodiimide (EDC), to an immobilization level of approximately 1500 RU. The binding experiments were carried out in a single cycle kinetics mode. Compound 1 was serially diluted in running buffer, and injected at a flow rate of 60 μl min^−1 across both surface for 60 s and dissociation were set up for 120 s. The analysis was done using Biaevaluation (GE Healthcare) and GraphPad Prism 7 software (GraphPad Software Inc, USA). […] The equilibrium dissociation constants (Kd) were determined by plotting the measured response (Req) as a function of the analyte concentration. […] Measured sensograms illustrating the binding of various concentrations of Compound 1 to the protein are shown in FIG. 3B (PfcFRS) and 3C (HscFRS) including both the measured data and the 1:1 binding model fit.
smiles,measurement,setting,value
"COC[C@@H]1[C@H](c2ccc(C#Cc3ccccc3)cc2)[C@@H]2CN(C(=O)Nc3ccc(OC4CC4)cc3)C[C@@H](O)[C@@H](O)CN12 [Compound 1, (3S,4R,8R,9R,10S)—N-(4-cyclopropoxyphenyl)-3,4-dihydroxy-10-(methoxymethyl)-9-(4-(phenylethynyl)phenyl)-1,6-diazabicyclo[6.2.0]decane-6-carboxamide]",pIC50,HscFRS [1],4.92
same,pKd,HscFRS [2],4.80
